Test results taken from US8492346B2, “Methods of use of epsilon inhibitor compounds for the attenuation of pain” (KAI Pharmaceuticals, Inc., priority 2007, dated 2013).
“Also recorded” adds a separate entry of the source. Marks after values point to notes of the source that are not given here.

Tests used:
[1] = system: L5 nerve transection-induced allodynia and hyperalgesia; test: Chung (L5 spinal nerve transection) neuropathic pain model; format: in vivo, rat
Source text: The Chung (L5 nerve transection) is a well-known model for chronic (neuropathic) pain. […]
The activity of KAI-1678 has been evaluated in the L5 transection model or modified Chung model, is a mononeuropathic pain model in which the L5 spinal nerve is surgically transected, resulting in rapid development of sustained pain. The activity of KAI-1678 in this model is described below.
The rat L5 spinal nerve transection model has been used to evaluate the response to modulators of neuropathic pain. In the studies described below surgical transaction of the L5 spinal nerve was used to elicit mechanical allodynia, mechanical hyperalgesia and thermal hyperalgesia that characterize neuropathic pain. In this model, the neuropathic effects develop within a day and are reported to last for 1-2 months.
Mechanical allodynia and mechanical hyperalgesia are measured using calibrated von Frey filaments to elicit a flexion withdrawal response (paw withdrawal response) by pressing them against the plantar surface of the hindpaw on the same side as the nerve transection. The 2 g, 6 g and 10 g von Frey filaments are used to assess allodynia since these stimuli are normally innocuous to naïve animals. The 15 g, 26 g and 60 g filaments are used to assess algesia (response to noxious stimulus) since these stimuli elicit paw withdrawals in naïve animals and are considered to represent painful stimuli.
The existence of the disease state following nerve transection is confirmed based on tests performed with the 2 g and the 10 g filaments.
Once the disease state is confirmed, evaluation of the extent of mechanical allodynia or hyperalgesia is determined by observing the number of paw withdrawals in responsse to 5 tests with each of the von Frey filaments. Results are typically expressed either as the total number of paw withdrawals for the allodynic filaments (2 g, 6 g and 10 g for a total of 15 tests) or the algesic filaments (15 g, 26 g and 60 g for a total of 15 tests), or as the lowest filament to which the animals in a group have an average positive response defined as ≧3 withdrawals out of 5 tests with a particular filament. […]
Rats given an L5 spinal nerve transection were treated with a bolus subcutaneous dose of KAI-1678 ranging from 0.00025-0.25 mcg/rat (˜0.001-1 mcg/kg) on day 7 post-transection. The degree of mechanical allodynia and hyperalgesia was evaluated based on the number of paw withdrawals (out of 30) in response to 6 different von Frey filaments before and up to 3 hours after administration of the compound.

[2] = system: carrageenan-induced mechanical hyperalgesia; test: Carrageenan inflammatory pain model, Randall-Selitto paw-withdrawal test; format: in vivo, rat; conditions: for Mechanical hyperalgesia (PWT): FIG. 18
Experimental: (§1) The nociceptive flexior reflex was quantified on lightly restrained rats by using a Basile Analgesymeter (Randall-Selitto test). Inflammatory hyperlagesia was induced by injection of Carr (1%, 5 uL, i.d.), which was injected unilaterally to the dorsum of the hindpaw one-hour prior to compound administration. The εPKC inhibitor peptide (εV1-2) was injected via systemic routes.
as §1, with “μL,” for “uL,”, “one-hr” for “one-hour”
The rat carrageenan model has been extensively used to evaluate the response to modulators of inflammatory pain. In the model used for the studies described below, a single 5 microL injection of a 1% solution of carrageenan into the plantar surface of the right hindpaw was used to elicit an inflammatory response resulting in local edema and mechanical hyperalgesia. The mechanical hyperalgesia was quantitated as previously described using measurements of the nociceptive flexion reflex (Randall-Selitto paw-withdrawal test) in response to mechanical painful stimulation at the site of carrageenan injection. […] In the absence of further treatment, the PWT remained stable at ˜55 g for several hours, making it possible to use this model to evaluate the time-course of the response to treatment over the course of at least six hours after the establishment of the disease state.

[3] = system: incision pain; test: Brennan incision model; format: in vivo; conditions: preliminary, doses similar to carrageenan model
Source text: (§2) While experiments with these models are continuing, additional work is being done in other pain models.

[4] = system: spared nerve pain; test: Single spared nerve model; format: in vivo; conditions: preliminary, doses similar to carrageenan model
Source text: as §2

[5] = Dog toxicokinetics and tissue levels, 5-day subcutaneous infusion; conditions: for Tissue level, Dose Site Muscle, Mean / Tissue level, Dose Site Skin, Mean / Tissue level, Kidney, Mean / Tissue level, Liver, Mean / Tissue level, Lung, Mean / Tissue level, Peripheral Nerve, Mean / Tissue level, Skeletal Muscle, Mean / Tissue level, Spinal Cord, Mean / Tissue level, Brain, Mean: 25 mg/kg/day sc infusion five days
Source text: The pharmacokinetics of KAI-1678 are being studied in rats administered the compound as an intravenous bolus and infusion or as a subcutaneous bolus and infusion. The toxicokinetics of KAI-1678 are being studied in dogs administered the compound as a subcutaneous infusion as part of the toxicity studies. In these studies, plasma levels of KAI-1678 have been determined using a sandwich-based ELISA assay developed at KAI Pharmaceuticals. The lower limit of quantitation of this assay is approximately 0.3 ng/mL. A similar assay has been developed to measure tissue levels of KAI-1678.
As part of a range-finding toxicology study, 6 beagle dogs (one per sex per group) were administered continuous subcutaneous infusions of KAI-1678 for 5 days at dose levels of 3, 8 and 25 mg/kg/day. Blood samples were collected at various times on Day 1 (start of infusion) and Day 6 (after the end of infusion).
As part of this study, tissues were harvested from a subset of the animals at the end of dosing.

[6] = Rat pharmacokinetics, plasma levels by sandwich-based ELISA; format: in vivo
[7] = subcutaneous bolus 0.1 and 1 mcg/kg

Ac-EAVSLKPTGGYGRKKRRQRRR-NH2 [KAI-1678]
Mechanical allodynia, 10 g filament ([1]; minipump 0.025 and 0.25 mcg/day, lasted until Day 7 post-pump implantation): nearly complete reversal of mechanical allodynia | Duration of anti-hyperalgesic effect [1, 7]: at least 2 hours | Mechanical hyperalgesia, 15 g, 26 g and 60 g von Frey filaments [1, 7]: completely reverses mechanical hyperalgesia | Doses giving dose-dependent decrease in mechanical allodynia and mechanical hyperalgesia ([1]; subcutaneous bolus, day 7 post-transection, FIG. 25): ≥ 0.01 µg/kg | Potency relative to carrageenan-induced inflammatory pain model ([1]; subcutaneous infusion): about 1000 fold | Dose rates substantially reducing mechanical allodynia ([1]; subcutaneous osmotic minipump, 10 g filament, FIG. 26): ≥ 0.0025 µg/day | Ability to reverse mechanical hyperalgesia in sympathectomized animals ([2]; 25 mcg/kg/hr subcutaneous infusion, contralateral hindlimb, FIG. 24): abrogated | Carrageenan-induced mechanical hyperalgesia after sciatic and saphenous nerve transection ([2]; 25 mcg/kg/hr subcutaneous infusion, contralateral limb, proximal or distal to transection, FIG. 23): effective at eliminating carrageenan-induced mechanical hyperalgesia when the site of compound administration was proximal, but not distal, to the site of nerve transection | Carrageenan-induced mechanical hyperalgesia ([2]; IV infusion, rates as high as 1000 mcg/kg/hr for as long as 5 hours, FIG. 22): had no effect on carrageenan-induced mechanical hyperalgesia | Mechanical hyperalgesia (PWT) ([2]; intradermal 10 mcg/kg, ipsilateral hindpaw): completely reverse the mechanical hyperalgesia | Mechanical hyperalgesia (PWT) ([2]; intradermal 10 or 100 mcg/kg, contralateral hindpaw): completely reverse the mechanical hyperalgesia | Time to complete reversal of mechanical hyperalgesia ([2]; intradermal 100 mcg/kg, ipsilateral): ≤ 5 min | Mechanical hyperalgesia (PWT) ([2]; intradermal 100 mcg/kg, ipsilateral hindpaw): increasing the PWT beyond the pre-carrageenan levels | Lowest dose completely reversing mechanical hyperalgesia ([2]; subcutaneous bolus, contralateral hindlimb, for a short period): 0.1 µg/kg | Pain response (mechanical hyperalgesia) ([2]; subcutaneous bolus, thigh of contralateral hindlimb, FIG. 19): dose-dependent suppression in the pain response | Reversal of pain ([2]; subcutaneous infusion 250 mcg/kg/hr): rapid and sustained without any recurrence of hyperalgesia | Effect on mechanical hyperalgesia ([2]; subcutaneous infusion 25,000 mcg/kg/hr, data not shown): comparable to that seen with the 250 mcg/kg/hr infusion | Mechanical hyperalgesia, first phase of subcutaneous infusion ([2]; subcutaneous infusion, first phase approximately one hour, FIG. 21): rapid and complete reversal of the mechanical hyperalgesia at all doses tested | Dose rate completely reversing mechanical hyperalgesia in second phase ([2]; subcutaneous infusion, second phase two to three hours after start): ≥ 25 µg/kg/h | Activity in Brennan incision model [3]: also active in these models | Activity in single spared nerve model [4]: also active in these models | Tissue level, Dose Site Muscle, Mean ([5]; Animal 4001, male): 111 ng KAI-1678/g tissue | Tissue level, Dose Site Skin, Mean ([5]; Animal 4001, male): 1139 ng KAI-1678/g tissue | Tissue level, Kidney, Mean ([5]; Animal 4001, male): 689 ng KAI-1678/g tissue | Tissue level, Liver, Mean ([5]; Animal 4001, male): 224 ng KAI-1678/g tissue | Tissue level, Lung, Mean ([5]; Animal 4001, male): 254 ng KAI-1678/g tissue | Tissue level, Peripheral Nerve, Mean ([5]; Animal 4001, male): 429 ng KAI-1678/g tissue | Tissue level, Skeletal Muscle, Mean ([5]; Animal 4001, male): 133 ng KAI-1678/g tissue | Tissue level, Spinal Cord, Mean ([5]; Animal 4001, male): 11 ng KAI-1678/g tissue | Tissue level, Brain, Mean ([5]; Animal 4001, male, includes a data point below limit of quantitation): 6* ng KAI-1678/g tissue | Tissue level, Brain, Mean ([5]; Animal 4501, female): 7 ng KAI-1678/g tissue | Tissue level, Dose Site Muscle, Mean ([5]; Animal 4501, female): 1003 ng KAI-1678/g tissue | Tissue level, Dose Site Skin, Mean ([5]; Animal 4501, female): 6165 ng KAI-1678/g tissue | Tissue level, Kidney, Mean ([5]; Animal 4501, female): 3054 ng KAI-1678/g tissue | Tissue level, Liver, Mean ([5]; Animal 4501, female): 1505 ng KAI-1678/g tissue | Tissue level, Lung, Mean ([5]; Animal 4501, female): 1364 ng KAI-1678/g tissue | Tissue level, Peripheral Nerve, Mean ([5]; Animal 4501, female): 155 ng KAI-1678/g tissue | Tissue level, Skeletal Muscle, Mean ([5]; Animal 4501, female): 33 ng KAI-1678/g tissue | Tissue level, Spinal Cord, Mean ([5]; Animal 4501, female): 140 ng KAI-1678/g tissue | Clearance from systemic circulation / plasma level after end of infusion ([5]; subcutaneous infusion over 5 days, 3, 8 and 25 mg/kg/day): rapidly cleared from the systemic circulation; also recorded: declined quickly upon cessation of infusion | Levels in brain and spinal cord ([5]; subcutaneous infusion over 5 days, end of infusion): consistently low | Steady state plasma concentration ([6]; 2-hr intravenous infusion at 50 mcg/kg/hr): 10 to 20 ng/mL | half-life ([6]; rat, in vivo, iv, intravenous infusion, read-out: Terminal half-life): ~25 min
